# Where two headings read alike, the source gives them in different places.
# Assays:
# [1] = tested on: HCT116 FOP control reporter cell line; assay: HCT116 FOP control vector reporter assay (non-functional TCF elements); assay type: cell-based; conditions: HCT116 FOP control reporter cells, luciferase expression, 36 hours incubation, 50 μM to 15 nM, read-out: HCT116 FOPFlash IC50
# Method: (§1) In a parallel approach, HCT116 cells were cotransfected with the FOP control vector and pcDNA3. The FOP vector is identical to the TOP construct, but it contains instead of functional TCF elements a randomized, non-functional sequence. For this transfection a stable transfected cell line was generated as well.
# (§2) In preparation of the assay, the two cell lines were plated 24 hrs before at 10000 cells per well of a 384 micro titre plate (MTP) in 30 μL growth medium. Selective inhibitory activity for small molecules on the mutated Wnt pathway was determined after parallel incubation of both (TOP and FOP) HCT116 reporter cell lines with a compound dilution series from 50 μM to 15 nM in steps of 3.16-fold dilutions in CAFTY buffer (130 mM NaCl, 5 mM KCl, 20 mM HEPES, 1 mM MgCl2, 5 mM NaHCO3, pH 7.4) containing 2 mM Ca^2+ and 0.01% BSA. The compounds were thereby serially prediluted in 100% DMSO and thereafter in addition 50 fold into the CAFTY compound dilution buffer (described above). From this dilution 10 μL were added to the cells in 30 μL growth medium and incubated for 36 hours at 37° C. and 5% CO2. Thereafter luciferase assay buffer (1:1 mixture of luciferase substrate buffer (20 mM Tricine, 2.67 mM MgSO4, 0.1 mM EDTA, 4 mM DTT, 270 μM Coenzyme A, 470 μM Luciferin, 530 μM ATP, ph adjusted to pH 7.8 with a sufficient volume of 5M NaOH) and Triton buffer (30 mL Triton X-100, 115 mL glycerol, 308 mg Dithiothreitol, 4.45 g Na2HPO4.2 H2O, 3.03 g Tris.HCL, ad 1 l H20, pH 7.8) was added as equal volume to the compound solution on the cells to determine luciferase expression as a measure of Wnt signaling activity in a luminometer.
# [2] = tested on: constitutive active colorectal cancer cell (CRC) Wnt pathway; assay: HCT116 Super TopFlash cellular reporter assay (constitutive active Wnt pathway); assay type: cell-based; conditions: HCT116 TOP reporter cells, luciferase expression, 36 hours incubation, 50 μM to 15 nM
# Method: In order to discover and characterize small molecules which inhibit the constitutive active colorectal cancer cell (CRC) Wnt pathway, a cellular reporter assay was employed. The corresponding assay cell was generated by transfection of the colorectal cancer cell line HCT116 (ATCC, #CCL-247) with the Super TopFlash vector (Morin, Science 275, 1997, 1787-1790; Molenaar et al., Cell 86 (3), 1996, 391-399). The HCT116 cell line is cultivated at 37° C. and 5% CO2 in DMEM/F-12 (Life Technologies, #11320-074), supplemented with 2 mM glutamine, 20 mM HEPES, 1.4 mM pyruvate, 0.15% Na-bicarbonate and 10% foetal bovine serum (GIBCO, #10270), this cancer cell line is pathophysiological relevant since it carries a deletion of position S45 in the β-catenin gene, leading to constitutive active Wnt signaling. Stable transfectants were generated by cotransfection with pcDNA3 and selection of stable transfected cells with 1 mg/ml G418.
# as §1, §2
"IC50 ([1]; Homo sapiens, HCT-116, 36 h)","IC50 ([2]; Homo sapiens, HCT-116, 36 h)",IC50 [1],IC50 [2],Structure (SMILES)
≥ 50000 nM,385 nM,–,–,"COC1CN(CC(=O)Nc2cc(C(=O)Nc3ccc(-c4ccccc4)cc3)ccc2OC2CC2)C1 [Example 186, N-(biphenyl-4-yl)-4-(cyclopropyloxy)-3-{[(3-methoxyazetidin-1-yl)acetyl]amino}benzamide]"
≥ 50000 nM,162 nM,–,–,"CS(=O)(=O)c1ccc(C(=O)Nc2ccc(-c3ccccc3)cc2)cc1NC(=O)CN1CCOCC1 [Example 111, N-(biphenyl-4-yl)-4-(methylsulfonyl)-3-[(morpholin-4-ylacetyl)amino]benzamide]"
–,–,7500 nM,214 nM,"COCc1ccc(C(=O)Nc2ccc(-c3ccccc3)cc2)cc1NC(=O)C(C)N1CCOCC1 (single isomer, unassigned) [Example 173, N-(biphenyl-4-yl)-4-(methoxymethyl)-3-{[(2S*)-2-(morpholin-4-yl)propanoyl]amino} benzamide]"
≥ 50000 nM,513 nM,–,–,"O=C(CN1CCOCC1)Nc1cc(NC(=O)c2ccc(-c3ccccc3)cc2)ccc1Br [Example 68, N-{4-bromo-3-[(morpholin-4-ylacetyl)amino]phenyl}biphenyl-4-carboxamide]"
≥ 50000 nM,834 nM,–,–,"COc1ccc(NC(=O)c2ccc(-c3ccccc3)cc2)cc1NC(=O)[C@@H](C)N1CCOCC1 [Example 55, N-(4-methoxy-3-{[(2R)-2-(morpholin-4-yl)propanoyl]amino}phenyl)biphenyl-4-carboxamide]"
18900 nM,772 nM,–,–,"COc1c(Cl)cc(C(=O)Nc2ccc(-c3ccccc3)cc2)cc1NC(=O)CN1CCN(C)CC1 [Example 215, N-(biphenyl-4-yl)-3-chloro-4-methoxy-5-{[(4-methylpiperazin-1-yl)acetyl]amino}benzamide]"
≥ 50000 nM,160 nM,–,–,"O=C(CN1CCOCC1)Nc1cc(C(=O)Nc2ccc(-c3ccccc3)cc2)ccc1OCC1CC1 [Example 220, N-(biphenyl-4-yl)-4-(cyclopropylmethoxy)-3-[(morpholin-4-ylacetyl)amino)benzamide]"
5400 nM,–,–,135 nM,"COCCCOCc1ccc(C(=O)Nc2ccc(-c3ccccc3)cc2)cc1NC(=O)C(C)N1CCOCC1 (single isomer, unassigned) [Example 166, N-(biphenyl-4-yl)-4-[(3-methoxypropoxy)methyl]-3-{[(2R*)-2-(morpholin-4-yl)propanoyl]amino} benzamide]"
≥ 50000 nM,490 nM,–,–,"COc1ccc(NC(=O)c2ccc(-c3ccccc3)cc2)cc1NC(=O)[C@@H](C)N1CC2CCC(C1)O2 [Example 57, N-(4-methoxy-3-{[(2R)-2-(8-oxa-3-azabicyclo[3.2.1]oct-3-yl)propanoyl]amino}phenyl)biphenyl-4-carboxamide]"
≥ 50000 nM,533 nM,–,–,"O=C(CN1C[C@@H]2C[C@H]1CO2)Nc1cc(C(=O)Nc2ccc(-c3ccccc3)cc2)ccc1C(F)(F)F [Example 11, N-(biphenyl-4-yl)-3-{[(1S,4S)-2-oxa-5-azabicyclo[2.2.1]hept-5-ylacetyl]amino}-4-(trifluoromethyl)benzamide]"
≥ 50000 nM,1750 nM,–,–,"COc1ccc(NC(=O)c2ccc(-c3cc(F)cc(F)c3)cc2)cc1NC(=O)CN1CCOCC1 [Example 199, 3′,5′-difluoro-N-{4-methoxy-3-[(morpholin-4-ylacetyl)amino]phenyl} biphenyl-4-carboxamide]"
9000 nM,105 nM,–,–,"CN1CCN(CC(=O)Nc2cc(C(=O)Nc3ccc(-c4ccccc4)cc3)ccc2OCC2CC2)CC1 [Example 222, N-(biphenyl-4-yl)-4-(cyclopropylmethoxy)-3-{[(4-methylpiperazin-1-yl)acetyl]amino}benzamide]"
≥ 50000 nM,3950 nM,–,–,"COC(=O)c1cccc(-c2ccc(C(=O)Nc3ccc(OC)c(NC(=O)CN4CCOCC4)c3)cc2)c1 [Example 77, methyl 4′-({4-methoxy-3-[(morpholin-4-ylacetyl)amino]phenyl}carbamoyl)biphenyl-3-carboxylate]"
48000 nM,3500 nM,–,–,"COc1ccc(NC(=O)c2ccc(-c3ccccc3)cc2)cc1N(Cc1ccccc1)C(=O)CN1CCOCC1 [Example 64, N-{3-[benzyl(morpholin-4-ylacetyl)amino]-4-methoxyphenyl}biphenyl-4-carboxamide]"
≥ 50000 nM,430 nM,–,–,"O=C(Cn1cccn1)Nc1cc(C(=O)Nc2ccc(-c3ccccc3)cc2)ccc1C(F)(F)F [Example 3, N-(biphenyl-4-yl)-3-[(1H-pyrazol-1-ylacetyl)amino]-4-(trifluoromethyl)benzamide]"
8900 nM,105 nM,–,–,"CN1CCN(CC(=O)Nc2cc(C(=O)Nc3ccc(-c4ccccc4)cc3)ccc2CS(C)(=O)=O)CC1 [Example 125, N-(biphenyl-4-yl)-3-{[(4-methylpiperazin-1-yl)acetyl]amino}-4-[(methylsulfonyl)methyl]benzamide]"
28000 nM,2200 nM,–,–,"COc1ccc(NC(=O)c2ccc(-c3ccccc3)cc2)cc1N(C)C(=O)CN1CCOCC1 [Example 65, N-{4-methoxy-3-[methyl(morpholin-4-ylacetyl)amino]phenyl}biphenyl-4-carboxamide]"
34000 nM,196 nM,–,–,"COCCCOCc1ccc(C(=O)Nc2ccc(-c3ccccc3)cc2)cc1NC(=O)CN1CCOCC1 [Example 87, N-(biphenyl-4-yl)-4-[(3-methoxypropoxy)methyl]-3-[(morpholin-4-ylacetyl)amino]benzamide]"
≥ 50000 nM,194 nM,–,–,"O=C(CN1CCOCC1)Nc1cc(C(=O)Nc2ccc(-c3ccccc3)cc2)ccc1OCCO [Example 93, N-(biphenyl-4-yl)-4-(2-hydroxyethoxy)-3-[(morpholin-4-ylacetyl)amino]benzamide]"
–,–,7600 nM,300 nM,"COCCCOCc1ccc(C(=O)Nc2ccc(-c3ccccc3)cc2)cc1NC(=O)C(C)N1CCOCC1 (single isomer, unassigned) [Example 179, N-(biphenyl-4-yl)-4-[(3-methoxypropoxy)methyl]-3-{[(2S*)-2-(morpholin-4-yl)propanoyl]amino} benzamide]"
23000 nM,3640 nM,–,–,"CCN1CCN(CC(=O)Nc2cc(NC(=O)c3ccc(-c4ccccc4)cc3)ccc2OC)CC1 [Example 50, N-(3-{[(4-ethylpiperazin-1-yl)acetyl]amino}-4-methoxyphenyl)biphenyl-4-carboxamide]"
≥ 50000 nM,2150 nM,–,–,"O=C(CN1CCOCC1)Nc1cc(NC(=O)c2ccc(-c3ccccc3)cc2)ccc1F [Example 29, N-{4-fluoro-3-[(morpholin-4-ylacetyl)amino]phenyl}biphenyl-4-carboxamide]"
42500 nM,47.6 nM,–,–,"COCc1ccc(C(=O)Nc2ccc(-c3ccccc3)cc2)cc1NC(=O)CN1CC2CCC(C1)O2 [Example 154, N-(biphenyl-4-yl)-4-(methoxymethyl)-3-[(8-oxa-3-azabicyclo[3.2.1]oct-3-ylacetyl)amino]benzamide]"
≥ 50000 nM,134 nM,–,–,"COCCOCc1ccc(C(=O)Nc2ccc(-c3ccccc3)cc2)cc1NC(=O)C(C)N1CCOCC1 (stereo not shown) [Example 164, N-(biphenyl-4-yl)-4-[(2-methoxyethoxy)methyl]-3-{[2-(morpholin-4-yl)propanoyl]amino} benzamide]"
16500 nM,334 nM,–,–,"CN(C)C(=O)c1ccc(C(=O)Nc2ccc(-c3ccccc3)cc2)cc1NC(=O)CN1CCOCC1 [Example 21, N^4-(biphenyl-4-yl)-N^1,N^1-dimethyl-2-[(morpholin-4-ylacetyl)amino]terephthalamide]"
≥ 50000 nM,215 nM,–,–,"COC1CCN(CC(=O)Nc2cc(C(=O)Nc3ccc(-c4ccccc4)cc3)ccc2OC2CC2)C1 (stereo not shown) [Example 174, N-(biphenyl-4-yl)-4-(cyclopropyloxy)-3-{[(3-methoxypyrrolidin-1-yl)acetyl)amino}benzamide]"

# Source: patent US20160052898A1, “NOVEL COMPOUNDS” (BAYER PHARMA AKTIENGESELLSCHAFT, priority 2013, published 2016)
